According to patent publication US20050282755A1, “Compositions having antimicrobial activity and uses thereof” (priority 2004, published 2005):
Converted amounts (≈) assume the structure as drawn. Like-named read-outs stand apart in the source and are kept apart here. Non-standard residues stand in square brackets, D forms with d. Residues, ends and D or L forms follow the SMILES beside them. *: point of attachment. Lauroyl = CCCCCCCCCCCC(=O)*

Columns and labels:
[1] = system: Salmonella dublin (Lane); settings: pH 7.4
[2] = system: Propionibacterium acnes ATCC 6919; format: cell-based
Protocol: A second method that was used to determine the MIC in P. acnes for selected antimicrobial agents was a non-standard broth microdilution method that used an assay buffer composed of reinforced Clostridial broth. Briefly, a log-phase bacterial culture of P. acnes was used to inoculate wells of a 96-well plate so that the final inoculum for each well contained 5×10^5 to 1×10^6 CFU/milliliter. […] Plates were incubated for 48-72 hours at 37° C. in a GasPak anaerobic chamber. The lowest concentration of peptide that contained no visible growth as evidenced by a lack of turbidity when compared to the control (no peptide) was determined as the MIC. MIC values that utilized this method of MIC determination are indicated in Table 9 with a subscript letter “d.”

[3] = system: Staphylococcus aureus ATCC 29213; settings: ATCC 29213, pH 7.4
[4] = system: Staphylococcus aureus ATCC 29213; experiment: MIC, NCCLS M7-A6 broth microdilution, cation-adjusted Mueller Hinton broth (Table 9, no superscript); format: cell-based; settings: ATCC 29213
How it was run: (§1)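 Log-phase bacteria were added to wells containing peptide in cation-adjusted Mueller Hinton broth at a final 5×10^5 to 1×10^6 CFU/milliliter. Plates then sat overnight at 37° C. Wells were scored visually for turbidity against a peptide-free control.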

[5] = system: Candida albicans ATCC 18804; experiment: MIC in yeasts, NCCLS M27-A2 broth microdilution, RPMI 1640 (Table 9, letter e); format: cell-based; settings: ATCC 18804
How it was run: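 Broth microdilution per NCCLS M27-A2 in RPMI 1640 with glutamine and phenol red, final inoculum 0.5×10^3–2.5×10^3 CFU/milliliter. Incubated 24 to 48 hours at 37° C; MIC is the lowest peptide concentration with no visible growth.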

[6] = system: Salmonella dublin (Lane); experiment: MIC, NCCLS M7-A6 broth microdilution (Table 9, no superscript); format: cell-based
How it was run: as §1

[7] = system: Staphylococcus epidermidis ATCC 12228; experiment: as above; format: cell-based; settings: ATCC 12228
How it was run: as §1

[8] = system: Escherichia coli ATCC 25922; experiment: as above; format: cell-based; settings: ATCC 25922
How it was run: as §1

[9] = system: Pseudomonas aeruginosa ATCC 27853; experiment: as above; format: cell-based; settings: ATCC 27853
How it was run: as §1

[10] = system: human red blood cells; format: cell-based; settings: red cells of human
Protocol: Hemoglobin-release assays with human red blood cells (RBC) were performed to determine the hemolytic activity of granulysin peptides. Human RBCs (San Diego Blood Bank, San Diego, Calif.) were washed three times in PBS buffer (8 mM Na2HPO4, 1.5 mM KH2PO4, 140 mM NaCl and 2.7 mM KCl, pH 7.4), resuspended in PBS to the concentration of 5% (v/v). The RBC were then exposed to different peptide compositions at various concentrations (100-6.25 micromolar) and incubated at 37° C. for 60 minutes in a total volume of 120 microliters. Every experiment included a negative control without peptide and maximum control treated with 5% TX-100 for complete hemoglobin release. Samples were centrifuged for 1 minute at 13,000 g to remove debris and intact cells. The hemoglobin-containing supernatant was removed and transferred to a microwell plate. Hemoglobin release was quantified at A540 using a Versamax plate reader (Molecular Devices). The degree of hemolysis is expressed as percentage of hemolysis compared to the […], using the following formula: % hemolysis=(sample−neg. control)/(max. control−neg. control)×100.

Row | MIC S. dublin [1] [b ug/mL] | MIC P. acnes [2] [µg·days/mL] | MIC S. aureus [3] [b ug/mL] | MIC S. aureus [4] [µg/mL] | MIC C. albicans [5] [e ug/mL] | MIC S. dublin [6] [µg/mL] | MIC S. epidermidis [7] [µg/mL] | MIC E. coli [8] [µg/mL] | MIC P. aeruginosa [9] [µg/mL] | SMILES | Hemolytic effect on human red blood cells ([10]; 6.25 Micromolar) [%] | Hemolytic effect on human red blood cells ([10]; 12.5 Micromolar) [%] | Hemolytic effect on human red blood cells ([10]; 25 Micromolar) [%] | Hemolytic effect on human red blood cells ([10]; 50 Micromolar) [%] | Hemolytic effect on human red blood cells ([10]; 100 Micromolar) [%]
1 | 25 | 25 | 25 |  |  |  |  |  |  | CSCC[C@H](NC(=O)[C@H](Cc1ccccc1)NC(=O)[C@H](CC(N)=O)NC(=O)[C@H](CCCNC(=N)N)NC(=O)[C@H](CO)NC(=O)[C@H](Cc1c[nH]c2ccccc12)NC(=O)[C@H](CC(=O)O)NC(=O)[C@H](CCCNC(=N)N)NC(=O)[C@H](Cc1c[nH]c2ccccc12)NC(=O)[C@H](CCCNC(=N)N)NC(=O)[C@H](CO)NC(=O)[C@H](CCCNC(=N)N)NC(=O)CNC(=O)[C@@H](NC(=O)[C@H](CCCNC(=N)N)NC(=O)[C@H](CO)NC(=O)[C@@H](NC(=O)[C@H](CCCNC(=N)N)NC(=O)[C@@H](NC(C)=O)[C@@H](C)O)C(C)C)[C@@H](C)O)C(=O)N[C@@H](CCCNC(=N)N)C(=O)N[C@@H](CCCNC(=N)N)C(=O)N[C@@H](CCCNC(=N)N)C(N)=O [Peptide 13] (Ac-TRVSRTGRSRWRDWSRNFMRRR-NH2) |  |  |  |  | 
2 | 6 | 25 | 6 |  |  |  |  |  |  | CSCC[C@@H](NC(=O)[C@@H](Cc1ccccc1)NC(=O)[C@@H](CC(N)=O)NC(=O)[C@@H](CCCNC(=N)N)NC(=O)[C@@H](CO)NC(=O)[C@@H](Cc1c[nH]c2ccccc12)NC(=O)[C@@H](CC(=O)O)NC(=O)[C@@H](CCCNC(=N)N)NC(=O)[C@@H](Cc1c[nH]c2ccccc12)NC(=O)[C@@H](CCCNC(=N)N)NC(=O)[C@@H](CO)NC(=O)[C@@H](CCCNC(=N)N)NC(=O)CNC(=O)[C@H](NC(=O)[C@@H](CCCNC(=N)N)NC(=O)[C@@H](CO)NC(=O)[C@H](NC(=O)[C@@H](CCCNC(=N)N)NC(=O)[C@H](NC(=O)[C@@H](C)NC(=O)[C@@H](C)NC(=O)[C@@H](CCCCN)NC(=O)[C@@H](CCCCN)NC(=O)[C@@H](CCCCN)NC(=O)[C@@H](CCCCN)NC(=O)[C@@H](CCCCN)NC(=O)[C@@H](CCCCN)NC(=O)[C@@H](CCCCN)NC(=O)[C@H](N)CCCCN)[C@H](C)O)C(C)C)[C@H](C)O)C(=O)N[C@H](CCCNC(=N)N)C(N)=O [Peptide 36, H2N-kkkkkkkkaatrvsrtgrsrwrdwsrnfmr-NH2] (H-[dK][dK][dK][dK][dK][dK][dK][dK][dA][dA][dT][dR][dV][dS][dR][dT]G[dR][dS][dR][dW][dR][dD][dW][dS][dR][dN][dF][dM][dR]-NH2) |  |  |  |  | 
3 |  | 6 |  | >64 | 64 | 8 (≈ 3.05 µM) | 2 (≈ 0.763 µM) | 4 (≈ 1.53 µM) | >64 | CSCC[C@@H](NC(=O)[C@@H](Cc1ccccc1)NC(=O)[C@@H](CC(N)=O)NC(=O)[C@@H](CCCNC(=N)N)NC(=O)[C@@H](C)NC(=O)[C@@H](Cc1c[nH]c2ccccc12)NC(=O)[C@@H](CC(=O)O)NC(=O)[C@@H](CCCNC(=N)N)NC(=O)[C@@H](Cc1c[nH]c2ccccc12)NC(=O)[C@@H](CCCNC(=N)N)NC(=O)[C@@H](CO)NC(=O)[C@@H](CCCNC(=N)N)NC(=O)CNC(=O)[C@H](NC(=O)[C@@H](CCCNC(=N)N)NC(=O)[C@@H](C)NC(=O)[C@H](NC(=O)[C@@H](CCCNC(=N)N)NC(=O)[C@H](NC(C)=O)[C@H](C)O)C(C)C)[C@H](C)O)C(=O)N[C@H](CCCNC(=N)N)C(N)=O [Peptide 56, Ac-trvartgrsrwrdwarnfmr-NH2] (Ac-[dT][dR][dV][dA][dR][dT]G[dR][dS][dR][dW][dR][dD][dW][dA][dR][dN][dF][dM][dR]-NH2) |  |  |  |  | 
4 |  | 12.5 |  | 8 (≈ 2.87 µM) | 16 | 16 (≈ 5.73 µM) | 2 (≈ 0.716 µM) | 32 (≈ 11.5 µM) | 64 (≈ 22.9 µM) | CCCCCCCCCCCC(=O)N[C@H](C(=O)N[C@@H](CCCNC(=N)N)C(=O)N[C@H](C(=O)N[C@@H](CO)C(=O)N[C@@H](CCCNC(=N)N)C(=O)N[C@H](C(=O)NCC(=O)N[C@@H](CCCNC(=N)N)C(=O)N[C@@H](CO)C(=O)N[C@@H](CCCNC(=N)N)C(=O)N[C@@H](Cc1c[nH]c2ccccc12)C(=O)N[C@@H](CCCNC(=N)N)C(=O)N[C@@H](CC(=O)O)C(=O)N[C@@H](Cc1c[nH]c2ccccc12)C(=O)N[C@@H](CO)C(=O)N[C@@H](CCCNC(=N)N)C(=O)N[C@@H](CC(N)=O)C(=O)N[C@@H](Cc1ccccc1)C(=O)N[C@@H](CCSC)C(=O)N[C@@H](CCCNC(=N)N)C(N)=O)[C@@H](C)O)C(C)C)[C@@H](C)O [Peptide 63] (Lauroyl-TRVSRTGRSRWRDWSRNFMR-NH2) |  |  |  |  | 
5 | 6 | 25 | 3 |  |  |  |  |  |  | CCCCCCCCCCCC(=O)NCCCC[C@@H](NC(=O)[C@@H](CCCNC(=N)N)NC(=O)[C@@H](CCSC)NC(=O)[C@@H](Cc1ccccc1)NC(=O)[C@@H](CC(N)=O)NC(=O)[C@@H](CCCNC(=N)N)NC(=O)[C@@H](CO)NC(=O)[C@@H](Cc1c[nH]c2ccccc12)NC(=O)[C@@H](CC(=O)O)NC(=O)[C@@H](CCCNC(=N)N)NC(=O)[C@@H](Cc1c[nH]c2ccccc12)NC(=O)[C@@H](CCCNC(=N)N)NC(=O)[C@@H](CO)NC(=O)[C@@H](CCCNC(=N)N)NC(=O)CNC(=O)[C@H](NC(=O)[C@@H](CCCNC(=N)N)NC(=O)[C@@H](CO)NC(=O)[C@H](NC(=O)[C@@H](CCCNC(=N)N)NC(=O)[C@H](NC(C)=O)[C@H](C)O)C(C)C)[C@H](C)O)C(N)=O [Peptide 65] (Ac-[dT][dR][dV][dS][dR][dT]G[dR][dS][dR][dW][dR][dD][dW][dS][dR][dN][dF][dM][dR][dK](Lauroyl)-NH2) |  |  |  |  | 
6 |  |  |  |  |  |  | 2 (≈ 0.644 µM) | 8 (≈ 2.58 µM) | >64 | CCCCCCCCCCCC(=O)N[C@@H](C(=O)N[C@H](CCCNC(=N)N)C(=O)N[C@@H](C(=O)N[C@H](CO)C(=O)N[C@H](CCCNC(=N)N)C(=O)N[C@@H](C(=O)NCC(=O)N[C@H](CCCNC(=N)N)C(=O)N[C@H](CO)C(=O)N[C@H](CCCNC(=N)N)C(=O)N[C@H](Cc1c[nH]c2ccccc12)C(=O)N[C@H](CCCNC(=N)N)C(=O)N[C@H](CC(=O)O)C(=O)N[C@H](Cc1c[nH]c2ccccc12)C(=O)N[C@H](CO)C(=O)N[C@H](CCCNC(=N)N)C(=O)N[C@H](CC(N)=O)C(=O)N[C@H](Cc1ccccc1)C(=O)N[C@H](CCSC)C(=O)N[C@H](CCCNC(=N)N)C(=O)N[C@H](C)C(=O)N[C@H](C)C(=O)N[C@@H](CCCCNC(C)=O)C(N)=O)[C@H](C)O)C(C)C)[C@H](C)O [Peptide 85, Lauryl-trvsrtgrsrwrdwsrnfmraaK(Ac)-NH2] | 16 | 26 | 36 | 53 | 83
7 |  | 25 |  | >64 | 8 | >64 |  |  |  | CSCC[C@H](NC(=O)[C@H](Cc1ccccc1)NC(=O)[C@H](CC(N)=O)NC(=O)[C@H](CCCNC(=N)N)NC(=O)[C@H](C)NC(=O)[C@@H](NC(=O)[C@H](CC(=O)O)NC(=O)[C@H](CCCNC(=N)N)NC(=O)[C@H](Cc1c[nH]c2ccccc12)NC(=O)[C@H](CCCNC(=N)N)NC(=O)[C@H](CO)NC(=O)[C@H](CCCNC(=N)N)NC(C)=O)C(C)C)C(=O)N[C@@H](CCCNC(=N)N)C(N)=O [Peptide 92, Ac-RSRWRDVARNFMR-NH2] (Ac-RSRWRDVARNFMR-NH2) |  |  |  |  | 
